Source: patent US20260274832A1, “COMPOUNDS AND THEIR USE IN TREATING CANCER” (ASTRAZENECA AB, priority 2023, published 2026)

Key:
[1] = target: T1, AR (AR-full length) in LNCaP cells (Homo sapiens, UniProt P10275, T878A); assay: LNCaP Androgen Receptor Imaging Assay (immunofluorescence of endogenous nuclear AR); format: cell-based; conditions: 24 h incubation; for DC50: concentration giving 50% of maximum degradation of AR per curve fit, single experiment or average of two or more; for Dmax: LNCaP, maximum degradation observed, normalized as % of positive control (prior art AR PROTAC at 3 μM)
T1 construct: the prostate cancer cell line LNCaP (expressing AR-full length); endogenous in cells; host or cells: LNCaP
Summary of the method: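 LNCaP cells (12,000/well) received a 12-point compound dose series (0.3% DMSO) for 24 h at 37° C., then were PFA-fixed and stained for AR (AR441) and nuclei (DRAQ5). Nuclear AR was quantified by imaging, normalized to a 3 μM AR PROTAC control; DC50 and Dmax came from Hill/bell curve fits.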

[2] = target: T2, AR (L702H) in LNCaP cells (Homo sapiens, UniProt P10275, L702H/T878A); assay: LNCaP Androgen Receptor L702H Imaging Assay (LNCaP cells engineered by CRISPR/Cas9); format: cell-based; conditions: LNCaP cells with AR L702H mutation, 24 h incubation; for DC50: concentration giving 50% of maximum degradation of AR (L702H) per curve fit; for Dmax: LNCaP, maximum degradation observed, normalized as % of positive control
T2 construct: engineered to introduce the mutation L702H into the AR gene using CRISPR/Cas9; endogenous in cells; host or cells: LNCaP cells edited by CRISPR/Cas9 at the AR gene
Summary of the method: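 CRISPR-engineered LNCaP cells carrying AR L702H were treated 24 h at 37 °C with a 12-point compound dose response (0.3% DMSO), then fixed and immunostained for AR with DRAQ5 nuclear counterstain. Nuclear AR was quantified by imaging, normalized to positive control; DC50 and Dmax came from Hill or bell-shaped fits.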

T2 sequence (P10275 whole entry L702H/T878A): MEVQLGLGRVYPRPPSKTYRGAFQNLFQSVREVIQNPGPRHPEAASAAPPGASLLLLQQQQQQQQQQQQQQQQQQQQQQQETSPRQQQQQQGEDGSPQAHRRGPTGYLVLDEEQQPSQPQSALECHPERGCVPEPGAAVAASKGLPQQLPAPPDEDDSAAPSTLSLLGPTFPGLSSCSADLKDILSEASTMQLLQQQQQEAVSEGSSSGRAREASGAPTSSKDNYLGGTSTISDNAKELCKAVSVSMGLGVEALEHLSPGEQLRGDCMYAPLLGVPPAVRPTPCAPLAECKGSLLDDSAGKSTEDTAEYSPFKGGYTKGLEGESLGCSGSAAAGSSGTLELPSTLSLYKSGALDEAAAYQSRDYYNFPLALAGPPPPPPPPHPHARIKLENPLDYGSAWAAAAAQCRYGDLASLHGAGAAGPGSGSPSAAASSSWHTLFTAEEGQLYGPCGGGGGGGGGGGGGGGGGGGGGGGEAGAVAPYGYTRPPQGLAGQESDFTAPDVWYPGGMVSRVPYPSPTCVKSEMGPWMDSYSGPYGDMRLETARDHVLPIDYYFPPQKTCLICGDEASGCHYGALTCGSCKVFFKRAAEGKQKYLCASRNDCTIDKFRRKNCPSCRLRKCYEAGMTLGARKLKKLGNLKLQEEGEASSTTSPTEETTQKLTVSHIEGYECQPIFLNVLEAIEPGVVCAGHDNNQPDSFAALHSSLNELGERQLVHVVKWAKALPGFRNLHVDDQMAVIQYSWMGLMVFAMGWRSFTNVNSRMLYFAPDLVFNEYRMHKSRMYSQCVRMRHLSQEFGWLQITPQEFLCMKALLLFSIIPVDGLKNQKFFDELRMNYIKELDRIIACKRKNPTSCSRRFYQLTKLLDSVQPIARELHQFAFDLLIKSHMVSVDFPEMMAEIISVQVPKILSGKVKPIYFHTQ
T2 sequence (Q96SW2 whole entry partner): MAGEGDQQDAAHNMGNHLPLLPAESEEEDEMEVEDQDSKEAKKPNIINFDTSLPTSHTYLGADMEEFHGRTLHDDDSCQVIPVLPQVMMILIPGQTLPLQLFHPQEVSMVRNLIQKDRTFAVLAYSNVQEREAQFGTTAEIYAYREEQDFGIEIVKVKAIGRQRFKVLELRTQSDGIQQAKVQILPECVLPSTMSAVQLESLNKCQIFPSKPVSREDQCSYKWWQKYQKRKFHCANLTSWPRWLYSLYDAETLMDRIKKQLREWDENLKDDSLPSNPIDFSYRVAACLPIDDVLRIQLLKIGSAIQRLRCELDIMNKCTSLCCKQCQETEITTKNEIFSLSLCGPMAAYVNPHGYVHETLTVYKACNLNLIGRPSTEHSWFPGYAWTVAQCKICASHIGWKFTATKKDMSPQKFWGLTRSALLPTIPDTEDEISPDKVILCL
T1 sequence (P10275 whole entry T878A): as the sequence (P10275 whole entry L702H/T878A) above, with H702L counted along it
T1 sequence (Q96SW2 whole entry partner): as the sequence (Q96SW2 whole entry partner) above

| SMILES | DC50 [1] [nM] | Dmax [1] [%] | DC50 [2] [nM] | Dmax [2] [%] |
| --- | --- | --- | --- | --- |
| Cc1ccc(N2CCN(c3ccc(OCCCCN4CCN(c5ccc6c(c5)CN(C5CCC(=O)NC5=O)C6=O)CC4)cc3)CC2)c2[nH]cc(C#N)c12 (stereo not drawn) [Example 95, 7-{4-[4-(4-{4-[2-(2,6-Dioxopiperidin-3-yl)-1-oxo-2,3-dihydro-1H-isoindol-5-yl]piperazin-1-yl}butoxy)phenyl]piperazin-1-yl}-4-methyl-1H-indole-3-carbonitrile] | 10 | 54 | > 3000 |  |
| N#Cc1c[nH]c2c(N3CCC(c4ccc(C(=O)N5CCC(CN6CCN(c7cc8c(cc7F)C(=O)N(C7CCC(=O)NC7=O)C8=O)CC6)CC5)cc4)CC3)ccc(Cl)c12 (stereo not drawn) [Example 100, 4-Chloro-7-(4-{4-[4-({4-[2-(2,6-dioxopiperidin-3-yl)-6-fluoro-1,3-dioxo-2,3-dihydro-1H-isoindol-5-yl]piperazin-1-yl}methyl)piperidine-1-carbonyl]phenyl}piperidin-1-yl)-1H-indole-3-carbonitrile] | 29 | 101 | 449 | 89 |
| N#Cc1c[nH]c2c(N3CCC(c4ccc(OC5CCN(CC6CCN(c7ccc8c(c7)CN(C7CCC(=O)NC7=O)C8=O)CC6)CC5)cc4)CC3)ccc(F)c12 (stereo not drawn) [Example 101, 7-[4-(4-{[1-({1-[2-(2,6-Dioxopiperidin-3-yl)-1-oxo-2,3-dihydro-1H-isoindol-5-yl]piperidin-4-yl}methyl)piperidin-4-yl]oxy}phenyl)piperidin-1-yl]-4-fluoro-1H-indole-3-carbonitrile] | 6 | 97 | 15 | 87 |
| Cc1cc(N2CCC(=O)NC2=O)cc2ccn(C3CCN(CC4CCN(c5ccc(C6CCN(c7ccc(Cl)c8c(C#N)c[nH]c78)CC6)cc5)CC4)CC3)c12 [Example 102, 4-Chloro-7-(4-{4-[4-({4-[5-(2,4-dioxo-1,3-diazinan-1-yl)-7-methyl-1H-indol-1-yl]piperidin-1-yl}methyl)piperidin-1-yl]phenyl}piperidin-1-yl)-1H-indole-3-carbonitrile] | 52 | 86 | 44 | 106 |
| Cn1c(C2CCN(CC3CCN(c4ccc(C5CCN(c6ccc(Cl)c7c(C#N)c[nH]c67)CC5)cc4)CC3)CC2)cc2ncc(N3CCC(=O)NC3=O)cc21 [Example 103, 4-Chloro-7-(4-{4-[4-({4-[6-(2,4-dioxo-1,3-diazinan-1-yl)-1-methyl-1H-pyrrolo[3,2-b]pyridin-2-yl]piperidin-1-yl}methyl)piperidin-1-yl]phenyl}piperidin-1-yl)-1H-indole-3-carbonitrile] | 8 | 85 | 7 | 107 |
| N#Cc1c[nH]c2c(N3CCC[C@@H](c4ccc(N5CCC(CN6CCN(c7ccc(C(=O)NC8CCC(=O)NC8=O)c(F)c7)CC6)CC5)cc4)C3)ccc(Cl)c12 (stereo partly drawn) [Example 104, 4-{4-[(1-{4-[(3S)-1-(4-chloro-3-cyano-1H-indol-7-yl)piperidin-3-yl]phenyl}piperidin-4-yl)methyl]piperazin-1-yl}-N-(2,6-dioxopiperidin-3-yl)-2-fluorobenzamide] | 13 | 98 | 46 | 97 |
| N#Cc1c[nH]c2c(N3CCC(c4ccc(N5CCC(CN6CCN(c7ccc(C(=O)NC8CCC(=O)NC8=O)c(F)c7)CC6)CC5)cc4)CC3)ccc(F)c12 (stereo not drawn) [Example 105, 4-{4-[(1-{4-[1-(3-Cyano-4-fluoro-1H-indol-7-yl)piperidin-4-yl]phenyl}piperidin-4-yl)methyl]piperazin-1-yl}-N-(2,6-dioxopiperidin-3-yl)-2-fluorobenzamide] | 61 | 89 | 49 | 95 |
| N#Cc1c[nH]c2c(N3CCC(c4ccc(N5CCC(CN6CCN(c7ccc(C(=O)NC8CCC(=O)NC8=O)c(F)c7)CC6)CC5)cc4)CC3)ccc(Cl)c12 (stereo not drawn) [Example 106, 4-{4-[(1-{4-[1-(4-Chloro-3-cyano-1H-indol-7-yl)piperidin-4-yl]phenyl}piperidin-4-yl)methyl]piperazin-1-yl}-N-(2,6-dioxopiperidin-3-yl)-2-fluorobenzamide] | 22 | 97 | 50 | 93 |
| N#Cc1c[nH]c2c(N3CCC(c4ccc(CN5CCN(CC6CCN(c7ccc8c(c7)CN(C7CCC(=O)NC7=O)C8=O)CC6)CC5)cc4)CC3)ccc(F)c12 (stereo not drawn) [Example 107, 7-[4-(4-{[4-({1-[2-(2,6-Dioxopiperidin-3-yl)-1-oxo-2,3-dihydro-1H-isoindol-5-yl]piperidin-4-yl}methyl)piperazin-1-yl]methyl}phenyl)piperidin-1-yl]-4-fluoro-1H-indole-3-carbonitrile] | 6 | 93 | 300 | 107 |
| N#Cc1c[nH]c2c(N3CCC(c4ccc(N5CCC(CN6CCC(n7ccc8c(N9CCC(=O)NC9=O)cccc87)CC6)CC5)nc4)CC3)ccc(Cl)c12 [Example 108, 4-Chloro-7-(4-{6-[4-({4-[4-(2,4-dioxo-1,3-diazinan-1-yl)-1H-indol-1-yl]piperidin-1-yl}methyl)piperidin-1-yl]pyridin-3-yl}piperidin-1-yl)-1H-indole-3-carbonitrile] | 7 | 104 | 34 | 102 |
| N#Cc1c[nH]c2c(N3CCC(c4ccc(N5CCC(CN6CCN(c7ccc8c(c7)CN(C7CCC(=O)NC7=O)C8=O)CC6)CC5)nc4)CC3)ccc(Cl)c12 (stereo not drawn) [Example 109, 4-Chloro-7-(4-{6-[4-({4-[2-(2,6-dioxopiperidin-3-yl)-1-oxo-2,3-dihydro-1H-isoindol-5-yl]piperazin-1-yl}methyl)piperidin-1-yl]pyridin-3-yl}piperidin-1-yl)-1H-indole-3-carbonitrile] | 5 | 97 | 10 | 96 |
| N#Cc1c[nH]c2c(N3CCC(c4ccc(N5CCC(N6CCN(c7ccc8c(c7)CN(C7CCC(=O)NC7=O)C8=O)CC6)CC5)cc4)CC3)ccc(Cl)c12 (stereo not drawn) [Example 110, 4-Chloro-7-{4-[4-(4-{4-[2-(2,6-dioxopiperidin-3-yl)-1-oxo-2,3-dihydro-1H-isoindol-5-yl]piperazin-1-yl}piperidin-1-yl)phenyl]piperidin-1-yl}-1H-indole-3-carbonitrile] | 6 | 88 | 5 | 97 |
| N#Cc1c[nH]c2c(N3CCC(c4ccc(N5CCC(N6CCC(n7ccc8c(N9CCC(=O)NC9=O)cccc87)CC6)CC5)cc4)CC3)ccc(Cl)c12 [Example 111, 4-Chloro-7-[4-(4-{4-[4-(2,4-dioxo-1,3-diazinan-1-yl)-1H-indol-1-yl][1,4′-bipiperidin]-1′-yl}phenyl)piperidin-1-yl]-1H-indole-3-carbonitrile] | 4 | 99 | 5 | 106 |
| COc1cc(N2CCN(CC3CCN(c4ccc(C5CCN(c6ccc(Cl)c7c(C#N)cn(C)c67)CC5)cc4)CC3)CC2)cc2c1C(=O)N(C1CCC(=O)NC1=O)C2 (stereo not drawn) [Example 112, 4-chloro-7-(4-{4-[4-({4-[2-(2,6-dioxopiperidin-3-yl)-7-methoxy-1-oxo-2,3-dihydro-1H-isoindol-5-yl]piperazin-1-yl}methyl)piperidin-1-yl]phenyl}piperidin-1-yl)-1-methyl-1H-indole-3-carbonitrile] | > 3000 |  | 17 | 87 |
